# pIC50: −log10 of the molar value.
# Legend:
# SGLT-1 = target: T1, SGLT-1 (Homo sapiens, UniProt P13866); assay: [14C]-AMG absorption in stable SGLT1 expressing Flp-in CHO cells (SGLT-1 activity screening assay); type: cell-based; settings: 14C-AMG uptake, 37° C. 1 h, 1% DMSO
# T1 sequence (P13866 1-664): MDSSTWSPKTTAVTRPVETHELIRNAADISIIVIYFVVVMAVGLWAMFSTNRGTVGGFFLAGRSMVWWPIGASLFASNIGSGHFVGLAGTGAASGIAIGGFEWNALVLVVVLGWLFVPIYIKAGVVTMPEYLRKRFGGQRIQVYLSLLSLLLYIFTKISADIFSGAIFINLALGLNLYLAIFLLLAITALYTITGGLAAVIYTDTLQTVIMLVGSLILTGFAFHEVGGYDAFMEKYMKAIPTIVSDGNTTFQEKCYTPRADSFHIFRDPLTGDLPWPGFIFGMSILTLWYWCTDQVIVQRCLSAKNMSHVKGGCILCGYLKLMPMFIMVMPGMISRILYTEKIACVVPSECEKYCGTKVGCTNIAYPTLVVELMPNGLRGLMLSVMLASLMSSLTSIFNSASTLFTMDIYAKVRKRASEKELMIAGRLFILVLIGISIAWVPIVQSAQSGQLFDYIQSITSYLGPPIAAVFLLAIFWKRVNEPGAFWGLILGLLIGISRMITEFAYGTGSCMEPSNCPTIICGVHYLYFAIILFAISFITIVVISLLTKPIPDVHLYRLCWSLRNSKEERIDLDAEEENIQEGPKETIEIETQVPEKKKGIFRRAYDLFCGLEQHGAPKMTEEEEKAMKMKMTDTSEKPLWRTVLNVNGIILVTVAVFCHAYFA
# Description: (§1) Example 1: [^14C]-AMG Absorption in Stable SGLT1 and SGLT2 Expressing Flp-in CHO Cells (SGLT-1 and SGLT-2 Activity Screening Assay)
# (§2) SGLT-1 and SGLT-2 cDNA clones were purchased from OriGene. After sequencing verification, the expression vectors were constructed based on pcDNA5/FRT using conventional molecular biology method. The expression vector was transfected into Flp-in CHO cells using Lipofectamin 2000. The transfected cells were subject hygromycin selection. The single clones of cells were selected by serial dilutions 4-5 weeks after transfection. The expression of SGLT-1 ? SGLT-2 were confirmed by RT-PCR and functional assay and cell line with strong signal was selected for subsequent study.
# (§3) Culture of stable SGLT-1 and SGLT-2 expressing Flp-in CHO cell line: the culture media contain F12 medium (Invitrogen), 500 μg/ml hygromycin (Calbiochem) and 10% FBS (Invitrogen). Upon 80% confluency, the cells in the T75 flask were washed three times with PBS (Invitrogen), and 5 mL of Trpsin-EDTA solution (Invitrogen) was then added. The flask was gently rotated so that all the cells were submerged in the digestion solution. After the cells detach, 10 mL of culture medium was added and single cell suspension was prepared by pipetting up and down. The cell concentration was adjusted to 3×10^5/mL, 100 μL/well was added onto clear bottom 96-well plate (Corning).
# (§4) The cells were ready for absorption assay once they attached after overnight culture. 12 h after cell plating, the cells were washed once with 150 μL/well absorption solution KRH-NMG (120 mM NMG, 4.7 mM KCl, 1.2 mM MgCl2, 2.2 mM CaCl2, 10 mM HEPES, pH 7.4 1 mM Tris). The solution was then removed from the well. 2.5 μCi/mL ^14C labeled AMG (PerkinElmer) Buffer KRH-Na+ (120 mM NaCl, 4.7 mM KCl, 1.2 mM MgCl2, 2.2 mM CaCl2, 10 mM HEPES, pH 7.4 1 mM Tris) was added at […] after washing with Buffer KRH-Na+ and KRH-NMG. The corresponding compound I was immediately added at 5 μL/well, ensuring the concentration of Dimethyl Sulfoxide was 1% (v/v). The plate was subsequently incubated at 37° C. for 1 h, after which 150 μL of ice cold wash buffer (120 mM NaCl, 4.7 mM KCl, 1.2 mM MgCl2, 2.2 mM CaCl2, 10 mM HEPES, 0.5 mM phlorizin, pH 7.4 1 mM Tris) was immediately added to terminate the reaction. Each well was washed three times with wash buffer and finally the solution was removed. Caution was taken to avoid cell detachment during the procedure. 20 μL/well of Lysis Buffer (0.1 mM NaOH) was added, the plate was vortexed at 900 rpm for 5 min. 80 μL/well of scintillation solution Microsint40 was added, and vortexed at 900 rpm for 5 min. The radioactivity was assayed using MicroBeta Trilux (PerkinElmer). The data was analyzed and IC50 of the compounds was calculated using XL-fit software.
# SGLT-2 = target: T2, SGLT-2 (Homo sapiens, UniProt P31639); assay: [14C]-AMG absorption in stable SGLT2 expressing Flp-in CHO cells (SGLT-2 activity screening assay); type: cell-based; settings: 14C-AMG uptake, 37° C. 1 h, 1% DMSO
# T2 sequence (P31639 1-672): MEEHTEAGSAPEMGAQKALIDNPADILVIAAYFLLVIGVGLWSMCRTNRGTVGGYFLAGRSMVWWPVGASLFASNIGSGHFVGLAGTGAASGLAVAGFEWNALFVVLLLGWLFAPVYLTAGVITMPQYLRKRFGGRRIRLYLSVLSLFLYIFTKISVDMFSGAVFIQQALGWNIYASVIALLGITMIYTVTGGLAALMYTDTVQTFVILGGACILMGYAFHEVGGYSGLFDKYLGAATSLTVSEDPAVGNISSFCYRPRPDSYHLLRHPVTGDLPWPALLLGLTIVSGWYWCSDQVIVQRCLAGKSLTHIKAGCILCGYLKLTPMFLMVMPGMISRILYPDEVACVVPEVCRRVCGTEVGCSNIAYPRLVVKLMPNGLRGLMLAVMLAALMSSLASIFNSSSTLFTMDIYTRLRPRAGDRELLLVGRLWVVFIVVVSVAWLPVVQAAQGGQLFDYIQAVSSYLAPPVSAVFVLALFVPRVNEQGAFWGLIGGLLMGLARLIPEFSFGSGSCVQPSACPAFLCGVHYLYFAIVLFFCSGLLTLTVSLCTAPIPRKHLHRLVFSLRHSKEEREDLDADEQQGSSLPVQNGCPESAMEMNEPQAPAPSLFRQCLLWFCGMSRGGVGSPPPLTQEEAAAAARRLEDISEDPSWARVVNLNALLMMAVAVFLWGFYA
# Description: as §1, §2, §3, §4
pIC50 (SGLT-1),pIC50 (SGLT-2),Compound
5.82,7.74,"COc1ccc([C@@H]2O[C@H](CO)[C@@H](O)[C@H](O)[C@H]2O)cc1Cc1ccc(OCc2cc3ccccc3o2)cc1 [Compound I-5, (2S,3R,4R,5S,6R)-2-(3-(4-(benzofuran-2-ylmethoxy)benzyl)-4-methoxyphenyl)-6-(hydroxymethyl)tetrahydro-2H-pyran-3,4,5-triol]"
5.37,7.89,"OC[C@H]1O[C@@H](c2ccc(F)c(Cc3ccc(OCC4Cc5ccccc5O4)cc3)c2)[C@H](O)[C@@H](O)[C@@H]1O (stereo partly drawn) [Compound I-21, (2S,3R,4R,5S,6R)-2-(3-(4-((2,3-dihydrobenzofuran-2-yl)methoxy)benzyl)-4-fluorophenyl)-6-(hydroxymethyl)tetrahydro-2H-pyran-3,4,5-triol]"
5.03,6.90,"OC[C@H]1O[C@@H](c2cccc(Cc3ccc(OCC4Cc5ccccc5O4)cc3)c2)[C@H](O)[C@@H](O)[C@@H]1O (stereo partly drawn) [Compound I-30, (2S,3R,4R,5S,6R)-2-(3-(4-((2,3-dihydrobenzofuran-2-yl)methoxy)benzyl)phenyl)-6-(hydroxymethyl)tetrahydro-2H-pyran-3,4,5-triol]"
6.44,8.19,"OC[C@H]1O[C@@H](c2ccc(Cl)c(Cc3ccc(OCC4Cc5c(F)cccc5O4)cc3)c2)[C@H](O)[C@@H](O)[C@@H]1O (stereo partly drawn) [Compound I-31, (2S,3R,4R,5S,6R)-2-(4-chloro-3-(4-((4-fluoro-2,3-dihydrobenzofuran-2-yl)methoxy)benzyl)phenyl)-6-(hydroxymethyl)tetrahydro-2H-pyran-3,4,5-triol]"
6.61,7.89,"Cc1ccc([C@@H]2O[C@H](CO)[C@@H](O)[C@H](O)[C@H]2O)cc1Cc1ccc(OCC2(C)Cc3ccccc3O2)cc1 (single isomer, unassigned) [Compound I-110]"
6.15,7.74,"CC1(COc2ccc(Cc3cc([C@@H]4O[C@H](CO)[C@@H](O)[C@H](O)[C@H]4O)ccc3Cl)cc2)Cc2ccccc2O1 (single isomer, unassigned) [Compound I-106]"
6.21,8.70,"OC[C@H]1O[C@@H](c2ccc(Cl)c(Cc3ccc(OC[C@H]4OCc5ccccc54)cc3)c2)[C@H](O)[C@@H](O)[C@@H]1O [Compound I-37, (2S,3R,4R,5S,6R)-2-(4-chloro-3-(4-(((S)-1,3-dihydroisobenzofuran-1-yl)methoxy)benzyl)phenyl)-6-(hydroxymethyl)tetrahydro-2H-pyran-3,4,5-triol]"
5.97,7.96,"OC[C@H]1O[C@@H](c2ccc(Cl)c(Cc3ccc(OCC4Cc5ccccc5O4)c(F)c3)c2)[C@H](O)[C@@H](O)[C@@H]1O (stereo partly drawn) [Compound I-12, (2S,3R,4R,5S,6R)-2-(4-chloro-3-(4-((2,3-dihydrobenzofuran-2-yl)methoxy)-3-fluorobenzyl)phenyl)-6-(hydroxymethyl)tetrahydro-2H-pyran-3,4,5-triol]"
6.35,7.85,"OC[C@H]1O[C@@H](c2ccc(Cl)c(Cc3ccc(OCc4cc5c(F)cccc5o4)cc3)c2)[C@H](O)[C@@H](O)[C@@H]1O [Compound I-7, (2S,3R,4R,5S,6R)-2-(4-chloro-3-(4-((4-fluorobenzofuran-2-yl)methoxy)benzyl)phenyl)-6-(hydroxymethyl)tetrahydro-2H-pyran-3,4,5-triol]"
5.92,8.37,"OC[C@H]1O[C@@H](c2ccc(Cl)c(Cc3ccc(OC[C@H]4Cc5ccccc5O4)cc3)c2)[C@H](O)[C@@H](O)[C@@H]1O [Compound I-24, (2S,3R,4R,5S,6R)-2-(4-chloro-3-(4-(((R)-2,3-dihydrobenzofuran-2-yl)methoxy)benzyl)phenyl)-6-(hydroxymethyl)tetrahydro-2H-pyran-3,4,5-triol]"
6.33,8.17,"OC[C@H]1O[C@@H](c2ccc(Cl)c(Cc3ccc(OCC4Cc5cc(F)ccc5O4)cc3)c2)[C@H](O)[C@@H](O)[C@@H]1O (stereo partly drawn) [Compound I-32, (2S,3R,4R,5S,6R)-2-(4-chloro-3-(4-((5-fluoro-2,3-dihydrobenzofuran-2-yl)methoxy)benzyl)phenyl)-6-(hydroxymethyl)tetrahydro-2H-pyran-3,4,5-triol]"
6.85,8.35,"OC[C@H]1O[C@@H](c2ccc(Cl)c(Cc3ccc(OCC4Cc5cccc(F)c5O4)cc3)c2)[C@H](O)[C@@H](O)[C@@H]1O (stereo partly drawn) [Compound I-34, (2S,3R,4R,5S,6R)-2-(4-chloro-3-(4-((7-fluoro-2,3-dihydrobenzofuran-2-yl)methoxy)benzyl)phenyl)-6-(hydroxymethyl)tetrahydro-2H-pyran-3,4,5-triol]"
6.74,8.39,"Cc1ccc([C@@H]2O[C@H](CO)[C@@H](O)[C@H](O)[C@H]2O)cc1Cc1ccc(OCC2Cc3ccccc3O2)cc1 (stereo partly drawn) [Compound I-25, (2S,3R,4R,5S,6R)-2-(3-(4-((2,3-dihydrobenzofuran-2-yl)methoxy)benzyl)-4-methylphenyl)-6-(hydroxymethyl)tetrahydro-2H-pyran-3,4,5-triol]"
,7.44,"OC[C@H]1O[C@@H](c2cccc(Cc3ccc(OCc4cc5ccccc5o4)cc3)c2)[C@H](O)[C@@H](O)[C@@H]1O [Compound I-6, (2S,3R,4R,5S,6R)-2-(3-(4-(benzofuran-2-ylmethoxy)benzyl)phenyl)-6-(hydroxymethyl)tetrahydro-2H-pyran-3,4,5-triol]"
,8.25,"CC1(C)OC(COc2ccc(Cc3cc([C@@H]4O[C@H](CO)[C@@H](O)[C@H](O)[C@H]4O)ccc3Cl)cc2)c2ccccc21 (stereo partly drawn) [Compound I-63, (2S,3R,4R,5S,6R)-2-(4-chloro-3-(4-((3,3-dimethyl-1,3-dihydroisobenzofuran-1-yl)methoxy)benzyl)phenyl)-6-(hydroxymethyl)tetrahydro-2H-pyran-3,4,5-triol]"
,7.42,"OC[C@H]1O[C@@H](c2ccc(Cl)c(Cc3ccc(OCCC4Cc5ccccc5O4)cc3)c2)[C@H](O)[C@@H](O)[C@@H]1O (stereo partly drawn) [Compound I-60, (2S,3R,4R,5S,6R)-2-(4-chloro-3-(4-(2-(2,3-dihydrobenzofuran-2-yl)ethoxy)benzyl)phenyl)-6-(hydroxymethyl)tetrahydro-2H-pyran-3,4,5-triol]"
